Where two headings read alike, the source gives them in different places.
How the values were obtained:
[1] = cited from earlier work
[2] = tested on: DA₂ receptor; assay: Goldberg femoral in vivo dog model (DA2 activity, intra-arterial)
Protocol: The compounds were subsequently tested following intra-arterial administration in an in situ renal and femoral arterial preparation in the dog, as developed by L.I. Goldberg, to test for DA1 and DA2 dopamine activity, respectively. Details of the methodology are provided in the European J. Pharmacol., 89:137, 1983, as well as in Hypertension, 6:1-25, 1984.
The compound was injected directly into the renal or femoral artery for analysis of DA₁ or DA₂ activity, respectively. […] The compound was tested for relative activity in comparison to the standard DA₁ agonist, dopamine or the standard DA₂ agonist, DPDA. Specific DA₁ or DA₂ activity of the tested compound was verified by Sch 23390 or domperidone blockade.
Adult mongrel dogs of either sex (11-20 kg) were anesthetized with pentobarbital sodium (33 mg/kg, i.v.). the animals were intubated and ventilated with room air using a Harvard respirator. […]
The optimal dose of compound was defined as that which produced a maximum increase in blood flow before causing a change in systemic blood pressure. Efficacy ratios were determined by division of the optimal response of the test compound by the optimal response of the standard agent. […] Potency ratios were the quotients calculated from the division of the standard agent ED₅₀ by the ED₅₀ of the test compound. […]

[3] = tested on: DA₁ receptor; assay: Goldberg renal in vivo dog model (DA1 activity, intra-arterial); conditions: for Relative Efficacy to DA₁ Standard: optimal response divided by optimal response of dopamine
Protocol: The compounds were subsequently tested following intra-arterial administration in an in situ renal and femoral arterial preparation in the dog, as developed by L.I. […] Details of the methodology are provided in the European J. […] The compound was injected directly into the renal or femoral artery for analysis of DA₁ or DA₂ activity, respectively. […] Specific DA₁ or DA₂ activity of the tested compound was verified by Sch 23390 or domperidone blockade. Adult mongrel dogs of either sex (11-20 kg) were anesthetized with pentobarbital sodium (33 mg/kg, i.v.). the animals were intubated and ventilated with room air using a Harvard respirator. The abdominal aorta was catheterized with a Millar micro-tip (size: 5F) transducer via the right femoral artery for pressure monitoring. The right femoral vein was cannulated with PE-160 tubing for iv saline infusion, as well as, supplemental pentobarbital administration. The left renal artery was isolated through a lateral abdominal incision. An electromagnetic flowprobe of the appropriate size (9-12 mm circ) was placed around the artery and connected to a Carolina Medical electromagnetic flowmeter. Surface ECG leads were placed subcutaneously on the chest and limbs to monitor heart rate. A 25 gauge 3/4" needle bent 90°, 4 mm from the tip, was placed in the renal artery proximal to the probe and connected to an infusion pump delivering saline at a constant rate of 1 ml/min. […] Blood pressure was maintained by supplemental saline (10-20 ml/kg, iv). Bradykinin, a standard for nonspecific vasodilation, was given at 0.62 nmole doses, in 0.2 ml saline, i.a., prior to generating a dose response curve for dopamine in which 4-fold increase doses, ranging from 3 to 48 nmoles, were injected i.a. in 0.2 ml of saline. Test compound was injected similarly in 4-fold increasing doses up to a maximum of 3000 nmoles. […] The optimal dose of compound was defined as that which produced a maximum increase in blood flow before causing a change in systemic blood pressure. Efficacy ratios were determined by division of the optimal response of the test compound by the optimal response of the standard agent. ED₅₀ values were derived by regression analysis from individually generated dose response curves. Potency ratios were the quotients calculated from the division of the standard agent ED₅₀ by the ED₅₀ of the test compound.

[4] = tested on: spontaneously hypertensive rats; assay: Oral antihypertensive activity in conscious restrained spontaneously hypertensive rat; assay type: in vivo
Protocol: The compounds of this invention were screened for oral antihypertensive activity in the conscious restrained rat. Adult male SHR were instrumented for blood pressure and heart rate measurements under light ether anesthesia. The animals were maintained on a plexiglass restraining board following surgery, and were allowed a 1 hour recovery period prior to the oral administration of the test compounds.
Male spontaneously hypertensive rats, SHR/NVr1Br (320-410 g) were fasted overnight. The following morning the left femoral artery and vein of each rat was cannulated under light ether anesthesia. following surgery, the rats were placed on a rat restraining board and allowed to recover from the effects of the ether for 1 hour. ECG leads were placed on the animal's chest to monitor heart reate. Animals were divided into groups of 4 and dosed with the test compound (R₁ and R₂ = H; X = (CH₂)m; m = 6).
Blood pressure and heart rate readings were taken at 5 minute intervals for the first 15 minutes and every 15 minutes thereafter for a duration of 4 hour post-compound administration. Data was evaluated by two-tailed paired t-tests.

[5] = tested on: spontaneously hypertensive rat (SHR); assay: Diuretic activity in saline-loaded spontaneously hypertensive rat; assay type: in vivo
Protocol: Additionally, these compounds were examined for diuretic activity for 6 hours following oral compound administration in the saline-loaded spontaneously hypertensive rat (SHR). Methods for this assay have been previously described (Rosenkranz, et al, Proc. West. Pharmacol. Soc. 28:87, 1985). The diuretic and natriuretic effects elicited by these compounds were characterized by an immediate onset of action.
Male spontaneously hypertensive SHR/NCr1BR rats weighing 320-430 gms were divided into four groups of seven animals. All animals were food- and water-deprived overnight. The following morning, each group of rats was hydrated with deionized water (20 ml/kg, po) forty-five minutes prior to the administration of vehicle or the test compound (R₁ and R₂ = H; X = (CH₂)n, m = 6).
Following vehicle or drug, the rats were placed in individual metabolic units. Fifteen minutes post-dose the animals were saline-loaded (30 ml/kg, po). Urine was collected at 1, 3 and 6 hour intervals post-saline-load. Urine volumes were measured and sodium and potassium levels were determined by flame photometry.
A two-way analysis of variance with time, treatment and their interaction was run as a repeated measures analysis. A secondary model of one-way analysis of variance (by time) was run using specified contrasts. The p-values for the contrasts were adjusted using Fisher's LSD strategy at each time point.

[6] = tested on: Rats; assay: 7-day toxicity in rats; assay type: in vivo; conditions: 30 and 100 mg/kg once a day for 7 days
Protocol: Rats were administered compound I (R₁ and R₂ = H; X = (CH₂)m; m = 6; R,R isomer) in doses of 30 and 100 mg/kg once a day for 7 days.

Cl.NCCc1ccc(O)c(O)c1 [DOPAMINE HYDROCHLORIDE, 3,4-Dihydroxyphenethylamine Hydrochlorid]
Solubility ([1]; in alcohol): soluble
Solubility ([1]; in chloroform and ether): practically insoluble
Solubility ([1]; in water): Freely soluble

CCCN(CCC)CCc1ccc(O)c(O)c1 [DPDA, di-propyl dopamine]
ED₅₀ ([2]; femoral blood flow increase, injection into femoral artery, anesthetized dog): 1.00 nmol
Relative Efficacy to DA₂ Standard ([2]; optimal response divided by optimal response of DPDA): 1.00

NCCc1ccc(O)c(O)c1 [Dopamine, 3-hydroxytyramine]
Relative Efficacy to DA₁ Standard [3]: 1.00

Oc1ccc(C[C@H]2CCCN2CCCCCCN2CCC[C@@H]2Cc2ccc(O)c(O)c2)cc1O [Test Compound, R,R-1,6-bis[2-(3,4-dihydroxybenzyl)pyrrolidin-1-yl]hexane]
HR increase ([4]; 3 mg/kg): 6%
duration of HR increase ([4]; 3 mg/kg): 90 min
HR max. response ([4]; 10 mg/kg, decrease, p<0.05): -14%
duration of HR decrease ([4]; 10 mg/kg, post-compound administration): 1 h
HR change ([4]; 30 mg/kg): did not elicit any biologically significant changes in HR
MBP change ([4]; 3, 10 and 30 mg/kg): significant decrease in MBP
Peak decreases in MBP ([4]; across 3, 10 and 30 mg/kg): -17 to -22%
duration of action (MBP decrease) ([4]; across 3, 10 and 30 mg/kg): 15 to 210 min
Relative Potency to DA₁ Standard ([3]; ED50 of dopamine divided by ED50 of test compound): 11.71
Relative Efficacy to DA₁ Standard [3]: 1.05
ED₅₀ ([3]; renal blood flow increase, injection into renal artery, anesthetized dog, phenoxybenzamine pretreated): 0.63 nmol
urine and sodium retention ([5]; 3 mg/kg, po, urine at 1 hour, sodium at 1 and 3 hours): significant urine and sodium retention
diuresis and natriuresis ([5]; 10 mg/kg oral, one hour post administration): significant diuresis and natriuresis
diuresis and natriuresis ([5]; 30 mg/kg, 1, 3 and 6 hours post-dose): diuresis and natriuresis (p<0.05) were observed
kaliuresis ([5]; 30 mg/kg, po, 1 and 3 hour post-dose): significant kaliuresis
treatment related changes in clinical condition, body weight, or food intake [6]: No treatment related changes were noted
